Our source for the IC50 values is patent US20080188528A1, “Modulators of C3a receptor and methods of use thereof” (priority 2006, published 2008).

Counter-ions that a name gives are not always drawn.

The target of this assay is T1, human C3a receptor (C3aR) (Homo sapiens, UniProt Q16581).
T1 construct: expressed in transfected cells
T1 sequence (Q16581 1-482): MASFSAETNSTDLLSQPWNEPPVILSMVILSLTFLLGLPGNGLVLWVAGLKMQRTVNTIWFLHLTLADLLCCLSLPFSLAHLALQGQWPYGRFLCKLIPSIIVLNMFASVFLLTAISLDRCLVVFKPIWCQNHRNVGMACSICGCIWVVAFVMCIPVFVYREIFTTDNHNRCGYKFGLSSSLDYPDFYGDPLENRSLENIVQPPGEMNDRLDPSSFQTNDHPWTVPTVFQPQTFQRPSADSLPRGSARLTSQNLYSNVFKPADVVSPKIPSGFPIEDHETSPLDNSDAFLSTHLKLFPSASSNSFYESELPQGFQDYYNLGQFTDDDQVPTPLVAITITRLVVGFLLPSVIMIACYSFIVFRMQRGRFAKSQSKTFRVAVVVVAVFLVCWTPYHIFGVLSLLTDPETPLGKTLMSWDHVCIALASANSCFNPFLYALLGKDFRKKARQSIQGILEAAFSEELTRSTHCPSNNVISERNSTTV
Put plainly: Inhibition of human [125I]-C3a binding to human C3a receptor (SPA, membranes of HEK293 cells expressing recombinant C3aR). As to conditions: 0.1 nM [125I]-C3a, 3 hours at room temperature. As to the method:
Inhibition of human [^125I]-C3a binding to human C3a receptor
Binding of human [^125I]-C3a to human C3a receptor (C3aR) was done using cell membranes from HEK293 cells stably expressing recombinant C3aR, in a homogeneous scintillation proximity assay (SPA). The C3aR cell membranes were pre-coupled over-night at 4° C. to WGA-PVT SPA beads (Amersham) at a ratio of 10 μg cell membrane to 0.5 mg beads/assay. Assay was performed in 96-well microtiter Optiplates (Packard) by mixing coupled beads and 0.1 nM [^125I]-C3a (2200 Ci/mmol, Perkin Elmer Life Sciences), in a total volume of […] binding buffer (20 mM HEPES, pH 7.4, 125 mM NaCl, 5 mM KCl, 1 mM CaCl2, 1 mM MgCl2, 0.25% BSA, 0.2% CHAPS). Test compounds were diluted in DMSO and were tested for their inhibitory potential in the assay (final concentration≦1% DMSO). Incubation was done for 3 hours at room temperature followed by reading in a TopCount scintillation microplate reader. Non-specific binding was determined by adding 1 μM unlabeled C3a (Calbiochem) to the assay mixture. Calculation of the IC50 was done as above using a nonlinear least square fitting program, with Graphpad Prism.

By IC50 is commonly meant the midpoint of a concentration-inhibition curve. As for `N=C(N)NCCC[C@H](NC(=O)c1cccn(C(c2ccccc2)c2ccccc2)c1=O)C(=O)O` [Compound 40, (2S)-5-carbamimidamido-2-({[1-(diphenylmethyl)-2-oxo-1,2-dihydropyridin-3-yl]carbonyl}amino)pentanoic acid•TFA], the half-inhibitory concentration (IC50) (Table 2) was less than 50 nM.
Still for that read-out and setting: to `N=C(N)NCCC[C@@H](NC(=O)c1cccn(C(c2ccccc2)c2ccccc2)c1=O)C(=O)O` [Compound 41, (2R)-5-carbamimidamido-2-({[1-(diphenylmethyl)-2-oxo-1,2-dihydropyridin-3-yl]carbonyl}amino)pentanoic acid•TFA] belongs less than 50 nM; to `Cc1ccccc1C(c1ccccc1C)n1cccc(C(=O)N[C@@H](CCCNC(=N)N)C(=O)O)c1=O` [Compound 42, (2S)-2-[({1-[bis(2-methylphenyl)methyl]-2-oxo-1,2-dihydropyridin-3-yl}carbonyl)amino]-5-carbamimidamidopentanoic acid•TFA], less than 50 nM.
On the same count and under the same terms, the figure for `Cc1cccc(C(c2cccc(C)c2)n2cccc(C(=O)N[C@@H](CCCNC(=N)N)C(=O)O)c2=O)c1` [Compound 43, (2S)-2-[({1-[bis(3-methylphenyl)methyl]-2-oxo-1,2-dihydropyridin-3-yl}carbonyl)amino]-5-carbamimidamidopentanoic acid] is less than 50 nM; for `N=C(N)NCCC[C@H](NC(=O)c1cccn(C(c2ccc(F)cc2)c2ccc(F)cc2)c1=O)C(=O)O` [Compound 44, (2S)-2-[({1-[bis(4-fluorophenyl)methyl]-2-oxo-1,2-dihydropyridin-3-yl}carbonyl)amino]-5-carbamimidamidopentanoic acid•TFA] it is less than 50 nM.
Same read-out and setting: to `N=C(N)NCCC[C@H](NC(=O)c1cccn(C(c2cccc(F)c2)c2cccc(F)c2)c1=O)C(=O)O` [Compound 45, (2S)-2-[({1-[bis(3-fluorophenyl)methyl]-2-oxo-1,2-dihydropyridin-3-yl}carbonyl)amino]-5-carbamimidamidopentanoic acid•TFA] belongs less than 50 nM; to `N=C(N)NCCC[C@H](NC(=O)c1cccn(C(c2ccccc2F)c2ccccc2F)c1=O)C(=O)O` [Compound 46, (2S)-2-[({1-[bis(2-fluorophenyl)methyl]-2-oxo-1,2-dihydropyridin-3-yl}carbonyl)amino]-5-carbamimidamidopentanoic acid•TFA], less than 50 nM; to `Cc1cc(C)cc(C(c2cc(C)cc(C)c2)n2cccc(C(=O)N[C@@H](CCCNC(=N)N)C(=O)O)c2=O)c1` [Compound 47, (2S)-2-[({1-[bis(3,5-dimethylphenyl)methyl]-2-oxo-1,2-dihydropyridin-3-yl}carbonyl)amino]-5-carbamimidamidopentanoic acid•TFA], less than 50 nM.
With `N=C(N)NCCC[C@H](NC(=O)c1cccn(C(c2cccc(C(F)(F)F)c2)c2cccc(C(F)(F)F)c2)c1=O)C(=O)O` [Compound 48, (2S)-2-{[(1-{bis[3-(trifluoromethyl)phenyl]methyl}-2-oxo-1,2-dihydropyridin-3-yl)carbonyl]amino}-5-carbamimidamidopentanoic acid•TFA], where the note is “Table 2”, the IC50 is less than 50 nM.
For the compound `N=C(N)NCCC[C@H](NC(=O)c1cccn(C(c2ccc(C(F)(F)F)cc2)c2ccc(C(F)(F)F)cc2)c1=O)C(=O)O` [Compound 49, (2S)-2-{[(1-{bis[4-(trifluoromethyl)phenyl]methyl}-2-oxo-1,2-dihydropyridin-3-yl)carbonyl]amino}-5-carbamimidamidopentanoic acid•TFA], the IC50 (Table 2) lay in the range of 50 to 500 nM.
For the compound `CC(c1ccccc1)n1cccc(C(=O)N[C@@H](CCCNC(=N)N)C(=O)O)c1=O` (stereo partly drawn) [Compound 50, (2S)-5-carbamimidamido-2-({[2-oxo-1-(1-phenylethyl)-1,2-dihydropyridin-3-yl]carbonyl}amino)pentanoic acid•TFA], the IC50 (Table 2) is less than 50 nM.
As to `N=C(N)NCCC[C@H](NC(=O)c1ccc(Cc2ccccc2)cc1)C(=O)O` [Compound 51, (2S)-2-[(4-benzylbenzoyl)amino]-5-carbamimidamidopentanoic acid•TFA], for the setting “Table 3”, the IC50 fell in the range of 50 to 500 nM.
For `N=C(N)NCCC[C@H](NC(=O)c1cccc(Cc2ccccc2)c1)C(=O)O` [Compound 52, (2S)-2-[(3-benzylbenzoyl)amino]-5-carbamimidamidopentanoic acid•TFA], for the setting “Table 3”, the concentration for half-maximal inhibition (IC50) is 50 to 500 nM.
The same measure, in the same setting: to `N=C(N)NCCC[C@H](NC(=O)c1ccn(Cc2ccccc2)c(=O)c1)C(=O)O` [Compound 53, (2S)-2-{[(1-benzyl-2-oxo-1,2-dihydropyridin-4-yl)carbonyl]amino}-5-carbamimidamidopentanoic acid•TFA] belongs 50 to 500 nM.
Turning to `N=C(N)NCCC[C@H](NC(=O)c1ccc(=O)n(Cc2ccccc2)c1)C(=O)O` [Compound 54, (2S)-2-{[(1-benzyl-6-oxo-1,6-dihydropyridin-3-yl)carbonyl]amino}-5-carbamimidamidopentanoic acid•TFA], the IC50 (Table 3) is 50 to 500 nM.
For the compound `N=C(N)NCCC[C@H](NC(=O)c1cccc(=O)n1Cc1ccccc1)C(=O)O` [Compound 55, (2S)-2-{[(1-benzyl-6-oxo-1,6-dihydropyridin-2-yl)carbonyl]amino}-5-carbamimidamidopentanoic acid•TFA], the IC50 (Table 3) is 50 to 500 nM.
Consider `N=C(N)NCCC[C@H](NC(=O)c1ccn(C(c2ccccc2)c2ccccc2)c(=O)c1)C(=O)O` [Compound 56, (2S)-5-carbamimidamido-2-({[1-(diphenylmethyl)-2-oxo-1,2-dihydropyridin-4-yl]carbonyl}amino)pentanoic acid•TFA], for which the IC50 (Table 3) was 50 to 500 nM.
Same read-out and setting: the figure for `N=C(N)NCCC[C@H](NC(=O)c1ccc(=O)n(C(c2ccccc2)c2ccccc2)c1)C(=O)O` [Compound 57, (2S)-5-carbamimidamido-2-({[1-(diphenylmethyl)-6-oxo-1,6-dihydropyridin-3-yl]carbonyl}amino)pentanoic acid•TFA] is 500 to 20000 nM.
Same read-out and setting: to `CC(C)(C(=O)NC(c1ccccc1)c1ccccc1)C(=O)N[C@@H](CCCNC(=N)N)C(=O)O` [Compound 58, (2S)-5-carbamimidamido-2-({3-[(diphenylmethyl)amino]-2,2-dimethyl-3-oxopropanoyl}amino)pentanoic acid•TFA] belongs less than 50 nM.
For the compound `NCCCC[C@H](NC(=O)c1cccn(Cc2ccccc2)c1=O)C(=O)O` [Compound 60, (2S)-6-amino-2-{[(1-benzyl-2-oxo-1,2-dihydropyridin-3-yl)carbonyl]amino}hexanoic acid•TFA], the half-maximal inhibitory concentration (IC50) (Table 4) is 500 to 20000 nM.
As to `Cc1ccc(S(=O)(=O)NCCCC[C@H](NC(=O)c2cccn(Cc3ccccc3)c2=O)C(=O)O)cc1` [Compound 61, (2S)-2-{[(1-benzyl-2-oxo-1,2-dihydropyridin-3-yl)carbonyl]amino}-6-{[(4-methylphenyl)sulfonyl]amino} hexanoic acid], the IC50 (Table 4) lay within 500 to 20000 nM.
On the same count and under the same terms, to `Cc1ccc(S(=O)(=O)NCCCC[C@H](NC(=O)c2cccn(C(c3ccccc3)c3ccccc3)c2=O)C(=O)O)cc1` [Compound 62, (2S)-2-({[1-(diphenylmethyl)-2-oxo-1,2-dihydropyridin-3-yl]carbonyl}amino)-6-{[(4-methylphenyl)sulfonyl]amino}hexanoic acid] belongs 50 to 500 nM.
Same read-out and setting: to `N=C(N)NCCCC[C@H](NC(=O)c1cccn(Cc2ccccc2)c1=O)C(=O)O` [Compound 63, (2S)-2-{[(1-benzyl-2-oxo-1,2-dihydropyridin-3-yl)carbonyl]amino}-6-carbamimidamidohexanoic acid•TFA] belongs 500 to 20000 nM.
Regarding `NC(=O)CC[C@H](NC(=O)c1cccn(C(c2ccccc2)c2ccccc2)c1=O)C(=O)O` [Compound 64, (2S)-5-amino-2-({[1-(diphenylmethyl)-2-oxo-1,2-dihydropyridin-3-yl]carbonyl}amino)-5-oxopentanoic acid], the IC50 (Table 4) was in the range of 500 to 20000 nM.
Same read-out and setting: to `N=C(N)NCC[C@H](NC(=O)c1cccn(C(c2ccccc2)c2ccccc2)c1=O)C(=O)O` [Compound 65, (2S)-4-carbamimidamido-2-({[1-(diphenylmethyl)-2-oxo-1,2-dihydropyridin-3-yl]carbonyl}amino)butanoic acid•TFA] belongs 50 to 500 nM; to `CCOC(=O)N=C(NC)NCC[C@H](NC(=O)c1cccn(C(c2ccccc2)c2ccccc2)c1=O)C(=O)O` [Compound 66, (2S)-2-({[1-(diphenylmethyl)-2-oxo-1,2-dihydropyridin-3-yl]carbonyl}amino)-4-{[[(ethoxycarbonyl)amino](methylamino)methylene]amino}butanoic acid], 500 to 20000 nM.
